Experimental findings from US12655413B2, “Fragmented GRS polypeptide and variant thereof, and use thereof” (CUREBIO THERAPEUTICS, priority 2018, dated 2026) are described below.

Residues, ends and D or L forms follow the SMILES beside them.

By Kd is commonly meant a measure of binding affinity in units of concentration.

In test [1] the test system is SN12C (CDH6 positive renal cancer cell). Nature of the test: Comparison of in vitro cancer cell apoptotic activity among the polypeptides (FIG. 2). The note with it: 1 μg or 2 μg of polypeptide. Type of test: cell-based. As to the method:
The polypeptide fragments were assayed for cancer cell apoptotic activity. Concrete experiment procedures were as follows: H460, HCT116, MCF7, HeLa, SN12C or RENCA cells were each seeded at a density 5,000 cells/mL into 96-well plates (Corning, New York, USA) and incubated for 24 hours with 100 nM of each of the polypeptide fragments and the full-length GRS protein. Then, each sample was treated for 2 hours with 10 μl of CCK8 reagent (Dojindo Molecular Technologies Inc. Kumamoto, Japan) before absorbance was read at 570 nm on a microplate reader (TECAN, Mannedorf, Swiss).
Comparison was made of cancer cell apoptotic activity among the polypeptide constructs of Examples 1-1 and 1-2. Each polypeptide was used in an amount of 1 μg or 2 μg, and the assay was performed in the same manner as in Example 1-1.

The subject of test [2] is SN12C (CDH6 positive) cells. Nature of the test: In vivo anticancer activity, intra-tumor injection, SN12C xenograft. Also noted: species or system BALB/c nude mice. The note with it: 20 μg into tumors on day 5 and 7; monitored 21 days; FIGS. 6b to 6d. As to the method:
FIG. 6a is an experimental scheme for evaluating the ability of GRS, GRS-DP, and representative fragments derived therefrom (GRS-DP-B, or GRS-DP-A cyclic) to induce tumor regression in vivo by intra-tumor injection. Briefly, SN12C (CDH6 positive) cells were subcutaneously injected into BALB/c nude mice and then grown for 5 days to an average tumor size of 100 mm^3. On day 5 and 7, PBS or test materials were each injected at a dose of 20 μg into tumors (n=5 animals/group). Tumor volumes were calculated according to “maximum diameter×minimum diameter^2×0.52”.
Experimental procedures of an assay for in vivo anticancer activity are schematically represented in FIG. 6a. Briefly, 1×10^7 SN12C (CDH6 positive) cells were subcutaneously injected to the right flank of female BALB/c 8 weeks old (Dooyeol Biotech Co. Ltd, Seocho-gu, Seoul) and then grown for 5 days to an average tumor size of 100 mm^3. On day 5 and 7, PBS (control) or test materials (including a control) were each injected at a dose of 20 μg into tumors (n=5 animals/group). After monitoring the tumors for 21 days, the mice were sacrificed on day 21 and the tumors were excised. Tumor volumes were calculated according to “maximum diameter×minimum diameter^2×0.52”.

The test system of test [3] is SN12C (CDH6 positive) cells. Kind of test: In vivo anticancer activity, intravenous injection, SN12C xenograft. Also noted: species or system BALB/c nude mice. The note with it: 5 MPK intravenously on day 5 and 7; monitored 21 days; FIGS. 7a to 7c. The source says:
FIG. 7a is an image of tumors excised from experimental animals in each test group sacrificed on day 21 after xenotransplantation of tumor cells, showing results of evaluating the ability of GRS, GRS-DP, and representative fragments derived therefrom (GRS-DP-B, or GRS-DP-A cyclic) to induce tumor regression in vivo by intravenous injection. Briefly, SN12C (CDH6 positive) cells were subcutaneously injected into BALB/c nude mice and then grown for 5 days to an average tumor size of 100 mm^3. On day 5 and 7, PBS or test materials were each intravenously injected at a dose of 5 MPK (n=5 animals/group). Tumor volumes were calculated according to “maximum diameter×minimum diameter^2×0.52”.
Experimental procedures of an assay for in vivo anticancer activity are schematically represented in FIG. 6a. Briefly, 1×10^7 SN12C (CDH6 positive) cells were subcutaneously injected to the right flank of female BALB/c 8 weeks old (Dooyeol Biotech Co. Ltd, Seocho-gu, Seoul) and then grown for 5 days to an average tumor size of 100 mm^3. On day 5 and 7, PBS (control) or test materials (including a control) were each intravenously injected at a dose of 5 MPK (n=5 animals/group). After monitoring the tumors for 21 days, the mice were sacrificed on day 21 and the tumors were excised. Tumor volumes were calculated according to “maximum diameter×minimum diameter^2×0.52”.

In test [4] the test system is B16F10 cells. Nature of the test: In vivo tumor targeting of Alexa fluor 488-labeled polypeptides, intravenous injection. The arrangement: species or system C57BL/6 mice. The note with it: 1 mg/kg intravenously, tumors excised after 24 hours; compared to full-length GRS protein and GRS-DP; FIGS. 8a, 8b. From the text: FIG. 8a is an image of tumors excised from test groups, showing comparison of abilities of GRS, GRS-DP, and representative fragments derived therefrom (GRS-DP-B or GRS-DP-A cyclic) to specifically target cancer cells in terms of fluorescence labeling intensity. In the experiment, B16F10 cells were subcutaneously injected into C57BL/6 mice and then grown for 14 days. On day 14, PBS or fluorescence-labeled test materials were each intravenously injected at a dose of 1 MPK, and tumors were excised 24 hours after injection.
Thus, the ability of GRS-DP-B to target tumors in practice was evaluated when it was administered in a systemic manner. For this, GRS-DP-B, GRS-DP-A cyclic, GRS-DP, and full-length GRS protein were assayed for tumor targeting ability in vivo. Briefly, B16F10 cells (5×10^6 cells) were subcutaneously injected into the right flank of each of C57BL/6 mice 8 weeks old. On day 14, full-length GRS and the polypeptides of the present invention, each labeled with Alexa fluor 488, were intravenously injected at a dose of 1 mg/kg mouse weight, and the tumors were excised after 24 hours. Fluorescent signals of tumors were measured using IVIS Lumina Series III (PerkinElmer, Massachusetts, USA) to analyze regions of interest (ROI)

Test [5] deals with CDH6+/pERK+ cells (H460, HeLa, SN12C) or negative cells (RENCA, MCF7). Kind of test: CDH6-dependency: cell viability of CDH6/pERK positive or negative cells. The test is classed as cell-based. The note with it: GRS-DP 100 nM (FIG. 5a legend: 200 nM); CDH6 positive vs negative cells.
Test [6] relates to pERK in SN12C (CDH6 positive) cells or RENCA (CDH6 negative) cells. Nature of the test: Dephosphorylation of pERK by western blotting. Type of test: cell-based. The note with it: 100 nM or 200 nM, 1 hour; SN12C vs RENCA; FIGS. 5b, 5c. As to the method: To examine whether the polypeptides of the present invention dephosphorylates pERK by binding to CDH6 or not, SN12C (CDH6 positive) cells or RENCA (CDH6 negative) cells were treated with the polypeptides of the present invention (typically, 100 nM or 200 nM of GRS-DP) and dephosphorylation of pERK was analyzed. In this regard, full-length GRS 100 nM was used as a positive control. In brief, the cells were […] for 1 hour with full-length GRS or GRS-DP, washed twice with chilled PBS, and lysed in a lysis buffer (150 mM NaCl, 2 mM EDTA, 1% Triton X-100, 1% sodium deoxycholate, 10 mM NaF, 1 mM orthovandadate, 10% glycerol, protease cocktail). Thirty micrograms of each protein were run on SDS/PAGE, followed by western blotting with an ERK antibody purchased from Cell Signaling Technology (Danvers, MA, USA) and an anti-cadherin-6 (K-cadherin) antibody purchased from Abcam (Cambridge, UK).
(Immunoblotting shows a protein as a band on a membrane.)

The target of test [7] is T1, cadherin6 (CDH6)-fc fusion protein (Homo sapiens, UniProt P55285).
T1 construct: Fc
Kind of test: Affinity for CDH6 by surface plasmon resonance (SPR). Type of test: binding. The note with it: CDH6 immobilized on carboxymethyl dextran chip. The procedure:
Comparison was made of the affinity of the peptides of the present invention for CDH6. The binding of GRS and GRS-derived peptides to cadherin6 (CDH6)-fc fusion protein was analyzed by surface plasmon resonance (SPR) using SR7500DC, Reichert Analytical Instrument (Depew NY). CDH6 was immobilized on a [CMDH chip]carboxymethyl dextran sensor chip via a free carboxyl group on the surface thereof, followed by injecting 0.1M 1-ethyl-3-(3-dimethylaminopropyl) carbodiimide hydrochloride and 0.05M N-hydroxysuccinimide at a flow speed of 5 μL/min to give an activated succinimide ester-modified surface. Various concentrations of GRS and GRS-derived peptides were injected at a flow speed of 30 μL/min into phosphate-based saline, after which a mobile-phase buffer was injected at the same flow speed to determine a dissociation rate. Data was analyzed using Software Scrubber 2.0 (Biological Software, Australia).

T1 sequence (P55285 with tags, fused parts or gaps limits assumed): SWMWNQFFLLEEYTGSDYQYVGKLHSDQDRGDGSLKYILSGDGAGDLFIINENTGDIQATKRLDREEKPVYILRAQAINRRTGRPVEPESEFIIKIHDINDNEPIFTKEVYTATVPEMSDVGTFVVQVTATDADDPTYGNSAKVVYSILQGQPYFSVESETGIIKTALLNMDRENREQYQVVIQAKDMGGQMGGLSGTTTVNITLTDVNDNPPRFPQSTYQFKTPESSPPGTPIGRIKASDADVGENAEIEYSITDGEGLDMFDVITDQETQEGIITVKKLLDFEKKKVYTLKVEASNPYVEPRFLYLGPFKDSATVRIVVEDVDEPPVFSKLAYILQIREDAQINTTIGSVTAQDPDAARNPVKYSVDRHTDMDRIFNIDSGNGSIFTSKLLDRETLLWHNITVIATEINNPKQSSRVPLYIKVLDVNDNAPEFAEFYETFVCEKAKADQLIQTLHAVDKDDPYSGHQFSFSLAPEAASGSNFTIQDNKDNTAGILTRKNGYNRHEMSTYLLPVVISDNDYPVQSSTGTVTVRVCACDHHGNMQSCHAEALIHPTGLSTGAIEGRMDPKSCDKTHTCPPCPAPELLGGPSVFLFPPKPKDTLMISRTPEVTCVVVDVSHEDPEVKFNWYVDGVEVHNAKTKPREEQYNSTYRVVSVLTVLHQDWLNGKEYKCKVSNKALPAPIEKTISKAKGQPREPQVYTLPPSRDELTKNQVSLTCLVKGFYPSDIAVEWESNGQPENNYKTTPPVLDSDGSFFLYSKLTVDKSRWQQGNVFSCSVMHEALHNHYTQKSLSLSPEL

With “GRS-DP-C: truncated GRS fragment, positions 538-552 on SEQ ID NO: 1, 15 aa (SEQ ID NO: 12) (TFHVREGDEQRTFFS; GRS-DP-C (GRS 538-552))”, the “cancer cell apoptotic effect” value in test [1] is reported as “not detected”.

On to `CSCC[C@H](N)C(=O)N[C@@H](Cc1ccc(O)cc1)C(=O)N[C@H](C(=O)N[C@H](C(=O)N[C@@H](Cc1ccccc1)C(=O)N[C@@H](CCC(=O)O)C(=O)N[C@@H](Cc1c[nH]cn1)C(=O)N[C@H](C(=O)N[C@@H](Cc1ccccc1)C(=O)N[C@@H](Cc1c[nH]cn1)C(=O)N[C@H](C(=O)N[C@@H](CCCNC(=N)N)C(=O)N[C@@H](CCC(=O)O)C(=O)NCC(=O)N[C@@H](CC(=O)O)C(=O)N[C@@H](CCC(=O)O)C(=O)N[C@@H](CCC(N)=O)C(=O)N[C@@H](CCCNC(=N)N)C(=O)N[C@H](C(=O)N[C@@H](Cc1ccccc1)C(=O)N[C@@H](Cc1ccccc1)C(=O)N[C@@H](CO)C(=O)N[C@@H](Cc1ccccc1)C(=O)N1CCC[C@H]1C(=O)N[C@@H](C)C(=O)O)[C@@H](C)O)C(C)C)[C@@H](C)O)C(C)C)[C@@H](C)O` [GRS-DP-A linear] (H-MYTVFEHTFHVREGDEQRTFFSFPA-OH; N-terminus and C-terminus assumed), for which, in test [1], the “cancer cell apoptotic effect” value is listed as “remarkably”.

Turning to “GRS-DP-B: truncated GRS fragment, positions 531-538 on SEQ ID NO: 1, 8 aa (SEQ ID NO: 2) (MYTVFEHT; GRS-DP-B(GRS 531-538))”, the “cancer cell apoptotic effect” value in test [1] was “remarkably”. Also, the “sizes (volumes) and weights of tumors” value in test [2] and in test [3] was “most remarkably reduced” in each case. Also, the “tumor-specific target ability (fluorescence ROI of excised tumors)” value in test [4] was “remarkably high tumor-specific target ability”.

Turning to “MYTVFEHTFHVREGDEQRTFFSFPAVVAPFKCSVLPLSQNQEFMPFVKELSEALTRHGVSHKVDDSSGSI [GRS-DP]”, the “cancer cell apoptotic effect” value in test [1] is “remarkably”. The cell viability result in test [5] was “reduced the cell viability of CDH6-positive cells only”. Besides, the “dephosphorylation of pERK” value in test [6] is listed as “inducing the CDH6-dependent dephosphorylation of pERK”. The molecule also showed a Kd in test [7] of 83.9 nM.
